Reference: patent US20220087960A1, “Oral Pharmaceutical Immediate Release Composition” (Aardvark Therapeutics Inc., priority 2020, published 2022)
Entries after “also recorded” stand apart in the source; their conditions may differ.

Assays:
[1] = system: diet-induced obesity (DIO) mouse model; test: 56-day DIO mouse weight loss study comparing DA and DB (Example 3); format: in vivo; settings: DIO mice
Excerpt: The 56-day study determined the behavioral effects of bitter taste receptor agonists denatonium acetate (DA) compared to denatonium benzoate (DB) in a diet-induced obesity (DIO) mouse model. […] The study duration was a 3-5 day acclimation period+[…] study period and 2-3 day testing period after study. […] The mice were C57BL/6NTad mice at least 12 weeks in age and 15 mice per group (low dose DA, higher dose DA, high dose DB and control). […] Metabolic biomarkers (blood glucose, blood insulin, blood HbA1c) were measured at the beginning and end of the study. The DA, DB or distilled water control was administered per ostium gavage (PO) at a volume of 5 mL/kg body weight.

Sprague Dawley rats = test: in vivo; settings: rat, po
Description: (§1) The drugs were administered to Sprague Dawley rats with a 14-day observational period. Twenty-four Male Sprague Dawley (SD) rats and 24 female SD rats were purchased from Envigo at 8-10 weeks of age. The DA group had four dose levels (120, 360, 1000, and 2000 mg/kg, single administration by oral gavage), 3 rats per sex, 6 animals in total per dose level; and the DB group: four dose levels (120, 360, 1000, and 2000 mg/kg, single administration by oral gavage), 3 rats per sex, 6 animals in total per dose level. The estimated median lethal dose (LD50) was determined by a nonlinear regression [model: Y=100/(1+10^(LogEC50-X)), Hill slope=1.0) to calculate LD50.

in vivo = settings: both, Sprague Dawley, rat, po
Description: as §1

male SD rats = test: Single oral dose food intake study, 24-hour observational period (Example 6, first in vivo study); design: species or system rat
Description: This example compares efficacy of DA versus DB in food inhibition and body weight control. As a background, according to Avau et al., Sci. Rep. […] In our first in vivo study, 45 male SD rats (purchased from Envigo at 8-10 weeks of age) were divided into three groups (15 in each group), which were administered a single oral dose of vehicle (distilled water), 26.8 mg/kg of DB, or 23.1 mg/kg of DA respectively, with a 24-hour observational period, to compare the efficacy of DB versus DA in reducing food intake. Table 4. Mean cumulative food intake during 24-h observational period

male Sprague Dawley rats = test: 24 hour food intake study in rats comparing DA to DB (Example 4); format: in vivo, rat; settings: gavage, DA high dose 23.1 mg/kg
Description: This example provides a 24 hour study comparing DA to DB is rats (male Sprague Dawley, Charles River) over a 24 hour period. The […] of 15 rats each were vehicle controlled distilled water gavage QID, DB at a dose of 26.8 mg/kg gavage QID, DA low dose 2.9 mg/kg gavage QD, and DA high dose 23.1 mg/kg gavage QD. Food intake at 2 hr, 4 hr, 6 hr, 8 hr and 24 hr after administration was measured.

male C57BL/6N DIO mice = test: 56-day BID treatment, food consumption and body weight in DIO mice (Example 6, second in vivo study); design: species or system mouse
Description: In a second in vivo study, 45 male C57BL/6N DIO mice (purchased from Envigo at 18 weeks of age, fed with high-fat diet) were divided into three groups (15 in each group), which were orally administered vehicle (distilled water), 26.8 mg/kg of DB, or 23.1 mg/kg of DA respectively, twice daily (BID), with a 56-day treatment period to compare the efficacy of DB versus DA in food intake reduction and body weight control. Briefly, once weekly, the food weight for each cage was recorded at 0 hour and then 24 hours later, permitting calculation of food consumption for that 24-hour interval. In addition, starting from Day 0, the mice were weighed three times weekly (every 2-3 days).

CC(=O)[O-].CC[N+](CC)(CC(=O)Nc1c(C)cccc1C)Cc1ccccc1 [DA, Denatonium acetate]
body weights at the indicated days (FIG. 1) ([1]; 56 day study, DA 23.1 mg/kg BID PO): lowest average body weights | body weight changes of the 56 day study (FIG. 2) ([1]; DA 23.1 mg/kg BID PO compared with DB 26.8 mg/kg BID): lowest increase in body weight; also recorded: weight loss improvement of higher dose DA over higher dose DB | serum insulin at the end of the 56 day study (FIG. 3) ([1]; DA 23.1 mg/kg BID PO, compared with pre-treatment and vehicle): close to baseline value | Mortality rate (Sprague Dawley rats; both, 120 mg/kg, 14 day): 0% | Mortality rate (Sprague Dawley rats; both, 360 mg/kg, 14 day): 0% | Mortality rate (Sprague Dawley rats; both, 1000 mg/kg, 14 day): 50% | Mortality rate (Sprague Dawley rats; both, 2000 mg/kg, 14 day): 100% | Estimated LD50 (Sprague Dawley rats; both, 14 day): 945 mg/kg | No. of animals died within 24 h post dosing (Sprague Dawley rats; female, 120 mg/kg): 0 | No. of animals died within 24 h post dosing (Sprague Dawley rats; female, 360 mg/kg): 0 | No. of animals died within 24 h post dosing (Sprague Dawley rats; female, 1000 mg/kg): 3 | No. of animals died within 24 h post dosing (Sprague Dawley rats; female, 2000 mg/kg): 3 | No. of animals died within 24 h post dosing (Sprague Dawley rats; male, 120 mg/kg): 0 | No. of animals died within 24 h post dosing (Sprague Dawley rats; male, 360 mg/kg): 0 | No. of animals died within 24 h post dosing (Sprague Dawley rats; male, 1000 mg/kg): 0 | No. of animals died within 24 h post dosing (Sprague Dawley rats; male, 2000 mg/kg): 3 | LD50 at 14 day (in vivo): 945 mg/kg | MTD at 14 day (in vivo): 360 mg/kg | food intake reduction, DA compared with DB (male SD rats; 23.1 mg/kg DA vs 26.8 mg/kg DB): a greater food intake reduction | Mean cumulative food intake 0-2 h (male SD rats; single oral dose (DA 23.1 mg/kg, DB 26.8 mg/kg), 0-2 h, N = 15): 4.7 gram | Mean cumulative food intake 0-4 h (male SD rats; single oral dose (DA 23.1 mg/kg, DB 26.8 mg/kg), 0-4 h, N = 15): 7.3 gram | Mean cumulative food intake 0-6 h (male SD rats; single oral dose (DA 23.1 mg/kg, DB 26.8 mg/kg), 0-6 h, N = 15): 10.3 gram | Mean cumulative food intake 0-8 h (male SD rats; single oral dose (DA 23.1 mg/kg, DB 26.8 mg/kg), 0-8 h, N = 15): 12.5 gram | Mean cumulative food intake 0-24 h (male SD rats; single oral dose (DA 23.1 mg/kg, DB 26.8 mg/kg), 0-24 h, N = 15): 20.2 gram | cumulative food intake as compared with vehicle (male SD rats; single oral dose, all indicated time intervals): reduced cumulative food intake during all the indicated time intervals as compared with vehicle | cumulative food consumption over 24 hours (FIG. 5) (male Sprague Dawley rats): largest impact | body weight gain as compared to vehicle treatment (male C57BL/6N DIO mice; DIO mice on high-fat diet, 26.8 mg/kg DB or 23.1 mg/kg DA BID): less body weight gain as compared to vehicle treatment | Mean food consumption per animal for 24-h interval, Day 0 (male C57BL/6N DIO mice; DIO mice, BID oral (DA 23.1 mg/kg, DB 26.8 mg/kg), Day 0): 2.2 gram | Mean food consumption per animal for 24-h interval, Day 7 (male C57BL/6N DIO mice; DIO mice, BID oral (DA 23.1 mg/kg, DB 26.8 mg/kg), Day 7): 1.7 gram | Mean food consumption per animal for 24-h interval, Day 14 (male C57BL/6N DIO mice; DIO mice, BID oral (DA 23.1 mg/kg, DB 26.8 mg/kg), Day 14): 1.9 gram | Mean food consumption per animal for 24-h interval, Day 21 (male C57BL/6N DIO mice; DIO mice, BID oral (DA 23.1 mg/kg, DB 26.8 mg/kg), Day 21): 2.3 gram | Mean food consumption per animal for 24-h interval, Day 28 (male C57BL/6N DIO mice; DIO mice, BID oral (DA 23.1 mg/kg, DB 26.8 mg/kg), Day 28): 2.0 gram | Mean food consumption per animal for 24-h interval, Day 35 (male C57BL/6N DIO mice; DIO mice, BID oral (DA 23.1 mg/kg, DB 26.8 mg/kg), Day 35): 2.4 gram | Mean food consumption per animal for 24-h interval, Day 42 (male C57BL/6N DIO mice; DIO mice, BID oral (DA 23.1 mg/kg, DB 26.8 mg/kg), Day 42): 2.0 gram | Mean food consumption per animal for 24-h interval, Day 49 (male C57BL/6N DIO mice; DIO mice, BID oral (DA 23.1 mg/kg, DB 26.8 mg/kg), Day 49): 2.3 gram | Mean food consumption per animal for 24-h interval, Day 56 (male C57BL/6N DIO mice; DIO mice, BID oral (DA 23.1 mg/kg, DB 26.8 mg/kg), Day 56): 1.7 gram | Mean normalized body weight (% of baseline), study day 0 (male C57BL/6N DIO mice; DIO mice, BID oral (DA 23.1 mg/kg, DB 26.8 mg/kg), day 0): 100.0 % of baseline | Mean normalized body weight (% of baseline), study day 4 (male C57BL/6N DIO mice; DIO mice, BID oral (DA 23.1 mg/kg, DB 26.8 mg/kg), day 4): 101.1 % of baseline | Mean normalized body weight (% of baseline), study day 7 (male C57BL/6N DIO mice; DIO mice, BID oral (DA 23.1 mg/kg, DB 26.8 mg/kg), day 7): 100.6 % of baseline | Mean normalized body weight (% of baseline), study day 9 (male C57BL/6N DIO mice; DIO mice, BID oral (DA 23.1 mg/kg, DB 26.8 mg/kg), day 9): 99.5 % of baseline | Mean normalized body weight (% of baseline), study day 11 (male C57BL/6N DIO mice; DIO mice, BID oral (DA 23.1 mg/kg, DB 26.8 mg/kg), day 11): 98.8 % of baseline | Mean normalized body weight (% of baseline), study day 14 (male C57BL/6N DIO mice; DIO mice, BID oral (DA 23.1 mg/kg, DB 26.8 mg/kg), day 14): 99.6 % of baseline | Mean normalized body weight (% of baseline), study day 16 (male C57BL/6N DIO mice; DIO mice, BID oral (DA 23.1 mg/kg, DB 26.8 mg/kg), day 16): 98.5 % of baseline | Mean normalized body weight (% of baseline), study day 18 (male C57BL/6N DIO mice; DIO mice, BID oral (DA 23.1 mg/kg, DB 26.8 mg/kg), day 18): 98.4 % of baseline | Mean normalized body weight (% of baseline), study day 21 (male C57BL/6N DIO mice; DIO mice, BID oral (DA 23.1 mg/kg, DB 26.8 mg/kg), day 21): 99.9 % of baseline | Mean normalized body weight (% of baseline), study day 23 (male C57BL/6N DIO mice; DIO mice, BID oral (DA 23.1 mg/kg, DB 26.8 mg/kg), day 23): 99.9 % of baseline | Mean normalized body weight (% of baseline), study day 25 (male C57BL/6N DIO mice; DIO mice, BID oral (DA 23.1 mg/kg, DB 26.8 mg/kg), day 25): 100.0 % of baseline | Mean normalized body weight (% of baseline), study day 28 (male C57BL/6N DIO mice; DIO mice, BID oral (DA 23.1 mg/kg, DB 26.8 mg/kg), day 28): 100.0 % of baseline | Mean normalized body weight (% of baseline), study day 30 (male C57BL/6N DIO mice; DIO mice, BID oral (DA 23.1 mg/kg, DB 26.8 mg/kg), day 30): 100.0 % of baseline | Mean normalized body weight (% of baseline), study day 32 (male C57BL/6N DIO mice; DIO mice, BID oral (DA 23.1 mg/kg, DB 26.8 mg/kg), day 32): 102.0 % of baseline | Mean normalized body weight (% of baseline), study day 34 (male C57BL/6N DIO mice; DIO mice, BID oral (DA 23.1 mg/kg, DB 26.8 mg/kg), day 34): 101.9 % of baseline | Mean normalized body weight (% of baseline), study day 36 (male C57BL/6N DIO mice; DIO mice, BID oral (DA 23.1 mg/kg, DB 26.8 mg/kg), day 36): 101.5 % of baseline | Mean normalized body weight (% of baseline), study day 39 (male C57BL/6N DIO mice; DIO mice, BID oral (DA 23.1 mg/kg, DB 26.8 mg/kg), day 39): 102.6 % of baseline | Mean normalized body weight (% of baseline), study day 41 (male C57BL/6N DIO mice; DIO mice, BID oral (DA 23.1 mg/kg, DB 26.8 mg/kg), day 41): 103.1 % of baseline | Mean normalized body weight (% of baseline), study day 46 (male C57BL/6N DIO mice; DIO mice, BID oral (DA 23.1 mg/kg, DB 26.8 mg/kg), day 46): 103.9 % of baseline | Mean normalized body weight (% of baseline), study day 49 (male C57BL/6N DIO mice; DIO mice, BID oral (DA 23.1 mg/kg, DB 26.8 mg/kg), day 49): 104.7 % of baseline | Mean normalized body weight (% of baseline), study day 51 (male C57BL/6N DIO mice; DIO mice, BID oral (DA 23.1 mg/kg, DB 26.8 mg/kg), day 51): 104.9 % of baseline | Mean normalized body weight (% of baseline), study day 53 (male C57BL/6N DIO mice; DIO mice, BID oral (DA 23.1 mg/kg, DB 26.8 mg/kg), day 53): 105.2 % of baseline | Mean normalized body weight (% of baseline), study day 56 (male C57BL/6N DIO mice; DIO mice, BID oral (DA 23.1 mg/kg, DB 26.8 mg/kg), day 56): 106.7 % of baseline | food consumption compared to vehicle-dosed mice (male C57BL/6N DIO mice; DIO mice, BID oral, 56-day treatment): nominally decreased food consumption compared to vehicle-dosed mice | body weight gain, DA compared with DB (male C57BL/6N DIO mice; DIO mice, Day 34 to Day 56): body weight gain was less | food consumption, DA compared with DB (male C57BL/6N DIO mice; DIO mice, all indicated measurement days except for Day 42): food consumption was less
